Key:
[1] = polyethylene glycol alone; from U.S. Pat. No. 8,609,707; cited from earlier work
[2] = Solubility of bendamustine in solvents
[3] = 2 months of storage at 25° C.; cited from earlier work

| SMILES | solubility in PEG alone [1] | solubility in glycerin [2] | stability of the solid on storage [3] |
| --- | --- | --- | --- |
| Cn1c(CCCC(=O)O)nc2cc(N(CCCl)CCCl)ccc21 [Bendamustine, 4-[5-[bis(2-chloroethyl)amino]-1-methylbenzimidazol-2-yl]butanoic acid] | poorly soluble | very high solubility | – |
| Cl.Cn1c(CCCC(=O)O)nc2cc(N(CCCl)CCCl)ccc21 | – | – | degrades |

— patent US9603930B2, “Liquid bendamustine formulation” (Navinta, LLC, priority 2014, dated 2017)
